According to patent publication US7026328B2, “Heterocyclic compounds which inhibit leukocyte adhesion mediated by α4 integrins” (Elan Pharmaceuticals, Inc., priority 2002, dated 2006):

Key:
[1] = Cassette Dosing and Serum Analysis for Determination of Bioavailability; assay type: in vivo, rat; details: average AUC 0→12 h, male Sprague Dawley rats, single oral cassette dose (6 compounds, total dose 10 mg/kg), plasma
Method: The cassette included 5 test articles and a standard compound, for a total dose of 10 mg/kg. Each compound/test article was converted to the sodium salt with equimolar 1 N NaOH and dissolved in water at 2 mg/mL. The cassette was prepared by mixing equal volumes of each of the six solutions. The cassette dosing solution was mixed well and then the pH was adjusted to 7.5–9. The dosing solution was prepared the day before the study and stirred overnight at room temperature.
Male Sprague Dawley (SD) rats from Charles River Laboratories, 6–8 weeks old were used in this screen. Rats were quarantined for at least one day and had continuous access to food and water. On the night before the administration of the cassette, the rats were fasted for approximately 16 h.
Four SD rats were assigned in each cassette. A single dose of the dosing solution was administered orally to each rat. The dosing volume (5 mL/kg) and time were recorded and rats were fed 2 h after dosing.
Blood samples were collected via cardiac puncture at the following time points: 4 h, 8 h and 12 h. Immediately prior to blood collection, rats were anesthetized with CO2 gas within 10–20 seconds. After the 12-h samples were collected, the rats were euthanized via CO2 asphyxiation followed by cervical dislocation.
Blood samples were kept in heparinized microtainer tubes under sub-ambient temperature (4° C.) before they were processed. Blood samples were centrifuged (10000 rpm for 5 minutes) and plasma samples were removed and stored in a −20° C. freezer until analyzed for drug levels. Drug levels in the plasma were analyzed using the following protocol for direct plasma precipitation.
The in vivo plasma samples were prepared in a 1.5 mL 96-well plate, by adding, in order, 100 μL of the test plasma, 150 μL of methanol, followed by vortexing for 10–20 seconds. 150 μL of 0.05 ng/μL of an Internal Standard in acetonitrile were added and vortexed for 30 seconds.
The standard curve samples were prepared in a 1.5 mL 96-well plate, by adding, in order, 100 μL of control mouse plasma, followed by 150 μL of methanol and vortexing for 10–20 seconds. 150 μL of 0.05 ng/μL of an Internal Standard in acetonitrile were added and vortexed for 30 seconds. The samples were spiked with 0–200 ng (10 concentrations) of the compound of interest in 50% methanol to obtain a standard curve range of 0.5 ng/mL–2,000 ng/mL. Again, the sample was vortexed for 30 seconds.
The samples were then spun for 20–30 minutes at 3000 rpm in an Eppendorf microfuge before 80–90% of supernatant was transferred into a clean 96-well plate. The organic solvent was then evaporated until the samples were dry (under N2 at 40° C./30–60 min (Zymark Turbovap)).
The residue was then dissolved in […] mobile phase (50% CH3OH/0.1% TFA). LC/MS/MS was then run using a PE-Sciex API-3000 triple quadurpole mass spectrometer (SN0749707), Perkin-Elmer, Series200auto-sampler, and shimadzu 10A pump. Acquisition was done with PE-Sciex Analyst (v1.1) and data analysis and quantification were accomplished using PE-Sciex Analyst (v1.1). A 5–50 μL sample volume was injected onto a reverse phase ThermoHypersil DASH-18 column (Keystone 2.0×20 mm, 5 μm, PN: 8823025-701) using a mobile phase of 25% CH3OH, 0.1% TFA-100% CH3OH, 0.1% TFA. The run time was about 8 minutes at a flow rate of about 300 μL/minutes.
The Area Under the Curve (AUC) was calculated using the linear trapezoidal rule from t=0 to the last sampling time tx (see Handbook of Basic Pharmacokinetics, Wolfgang A. Ritschel and Gregory L. Kearns, 5th ed, 1999). AUC^0→tx=S((Cn+Cn+1)/2))·(tn+1−tn)[(μg/mL)h]

α4β1 integrin = target: T1, α4β1 integrin (Homo sapiens, UniProt P05556+P13612); assay: α4β1 Integrin Adhesion Assay: Jurkat Cell Adhesion to Human Plasma Fibronectin; assay type: cell-based; details: Jurkat cells
T1 construct: Jurkat™ cells (maintained in log phase growth) were labeled with Calcein AM; endogenous in cells; host or cells: Jurkat cells
T1 sequence (P13612 34-1032): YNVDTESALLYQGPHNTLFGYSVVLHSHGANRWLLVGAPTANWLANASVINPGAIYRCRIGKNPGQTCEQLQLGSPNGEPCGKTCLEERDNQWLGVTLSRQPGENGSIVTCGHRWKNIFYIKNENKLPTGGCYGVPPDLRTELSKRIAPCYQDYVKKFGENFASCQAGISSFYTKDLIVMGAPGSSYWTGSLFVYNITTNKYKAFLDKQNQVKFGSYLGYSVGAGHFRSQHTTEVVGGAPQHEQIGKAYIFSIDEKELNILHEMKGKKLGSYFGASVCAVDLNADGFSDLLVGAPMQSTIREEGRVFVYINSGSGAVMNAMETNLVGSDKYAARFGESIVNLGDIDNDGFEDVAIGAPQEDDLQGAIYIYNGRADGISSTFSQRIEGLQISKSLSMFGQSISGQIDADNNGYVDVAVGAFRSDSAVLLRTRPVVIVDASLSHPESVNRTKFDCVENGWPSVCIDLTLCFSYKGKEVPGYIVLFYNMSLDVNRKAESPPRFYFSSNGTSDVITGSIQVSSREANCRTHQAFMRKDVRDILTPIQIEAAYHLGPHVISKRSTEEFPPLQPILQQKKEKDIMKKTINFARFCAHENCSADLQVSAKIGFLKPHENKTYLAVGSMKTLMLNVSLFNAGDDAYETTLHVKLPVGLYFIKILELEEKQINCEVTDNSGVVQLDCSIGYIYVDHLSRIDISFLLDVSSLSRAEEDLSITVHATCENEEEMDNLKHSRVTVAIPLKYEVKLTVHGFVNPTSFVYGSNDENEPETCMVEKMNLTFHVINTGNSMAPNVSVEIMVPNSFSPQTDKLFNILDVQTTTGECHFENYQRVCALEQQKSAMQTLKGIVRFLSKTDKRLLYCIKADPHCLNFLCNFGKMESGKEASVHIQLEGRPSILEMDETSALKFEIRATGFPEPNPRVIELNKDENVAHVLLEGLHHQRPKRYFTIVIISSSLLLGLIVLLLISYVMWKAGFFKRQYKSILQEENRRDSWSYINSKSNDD
T1 sequence (P05556 21-798): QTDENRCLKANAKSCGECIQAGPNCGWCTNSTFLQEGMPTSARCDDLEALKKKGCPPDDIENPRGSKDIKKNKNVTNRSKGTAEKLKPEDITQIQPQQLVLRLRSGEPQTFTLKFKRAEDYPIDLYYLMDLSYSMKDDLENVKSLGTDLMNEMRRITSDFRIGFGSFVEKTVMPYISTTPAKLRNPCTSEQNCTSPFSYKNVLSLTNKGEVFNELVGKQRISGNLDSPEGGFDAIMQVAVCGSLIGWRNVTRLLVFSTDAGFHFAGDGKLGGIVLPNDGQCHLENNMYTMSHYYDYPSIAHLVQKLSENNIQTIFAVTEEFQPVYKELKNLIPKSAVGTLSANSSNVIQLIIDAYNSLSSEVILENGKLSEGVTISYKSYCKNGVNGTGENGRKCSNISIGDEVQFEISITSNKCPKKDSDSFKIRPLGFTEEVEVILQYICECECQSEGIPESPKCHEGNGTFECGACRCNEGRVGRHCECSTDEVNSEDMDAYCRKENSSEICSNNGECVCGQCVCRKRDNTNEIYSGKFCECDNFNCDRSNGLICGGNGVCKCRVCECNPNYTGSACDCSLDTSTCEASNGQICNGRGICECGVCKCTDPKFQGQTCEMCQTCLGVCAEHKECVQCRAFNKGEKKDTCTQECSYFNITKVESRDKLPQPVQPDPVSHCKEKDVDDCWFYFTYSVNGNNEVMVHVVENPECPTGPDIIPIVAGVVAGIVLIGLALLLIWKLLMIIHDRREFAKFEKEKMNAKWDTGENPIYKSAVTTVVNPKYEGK
Method: 96 well plates (Costar 3590 EIA plates) were coated with human fibronectin (Gibco/BRL, cat #33016–023) at a concentration of 10 μg/mL overnight at 4° C. The plates were then blocked with a solution of bovine serum albumin (BSA; 0.3%) in saline. Jurkat™ cells (maintained in log phase growth) were labeled with Calcein AM according to the manufacturer's instructions, and suspended at a concentration of 2×10^6 cells/mL in Hepes/Saline/BSA. The cells were then exposed to test and control compounds for 30 minutes at room temperature before transfer to individual wells of the fibronectin coated plate. Adhesion was allowed to occur for 35 minutes at 37° C. The wells were then washed by gentle aspiration and pipetting with fresh saline. Fluorescence associated with the remaining adherent cells was quantified using a fluorescence plate reader at EX 485/EM 530.
Cell cultures were prepared by first splitting the stationary phase Jurkat™ cells at 1:10 on day one, and 1:2 on day two to perform assay on day 3. The cells split 1:10 on day one were split 1:4 on day 3 for a day 4 assay.
The assay plates were prepared by first making a working solution of Gibco/BRL Human Fibronectin (cat #33016-023) in PBS++, at 10 μg/mL. A Costar 3590 EIA plate was then coated with 50 μL/well for 2 hours at room temperature (thought it can also be left overnight at 4° C.). Finally the plate was asperated and blocked with Hepes/Saline Buffer, 100 μL/well, for 1 hour at RT followed by washing 3× with 150 μL of PBS++.
Compound dilutions were accomplished by preparing 1:3 serial dilutions of compounds as follows. For each plate (4 compounds/plate) 600 μL were added to 4 Bio-Rad Titertubes in a Titertube rack. […] Using Falcon Flexiplates, 100 μL of Hepes/Saline buffer or human serum were added to rows B through G. A multi-channel pipetter set to 180 μL was used to with four tips spaced evenly the pipetter. Each set of four tubes was mixed 5 times and 180 μL of 2× compound was transferred to the first column of each compound dilution in Row B, leaving Row A empty. 180 μL were added to the other wells in Row A. Serial dilutions were performed down the plate by transferring 50 μL to the next dilution and mixing 5 times, changing tips each time after mixing.
A 20 μg/mL solution in Hepes/Saline buffer or human serum, of 21/6 antibody was the positive control and was set aside in a reagent trough to add to cell suspension plate.
The cell staining was accomplished by first harvesting the log-phase Jurkat™ cells by centrifugation in 50 mL tubes (1100 rpm for 5 minutes). The cells were resuspended in 50 mL PBS++, spun, and resuspend in 20 mL PBS++. The cells were stained by adding 20 μL of Calcein AM for 30 minutes RT. The volume was brought to 50 mL with Hepes/Saline buffer and the cells were counted, spun, and resuspend to 2×10^6 cells/mL in Hepes/Saline buffer or human serum.
The compounds were incubated using the following procedure. In a new flexiplate, 65 μL of stained cells were added to Rows B through H. Then 65 μL of 2× compounds were added to the appropriate rows following the plate setup and mixed three times. 65 μL of 2×-21/6 antibody were added to Row H and mixed 3×. Finally the plate was incubated at room temperature for 30 minutes.
Fibronectin adhesion was measured using a fluorescent plate reader at EX 485/EM 530 after the following work up procedure. After incubation, the cells were mixed three times and 100 μL were transfered to the Fibronectin coated plates and incubated at 37° C. for about 35 minutes. Each plate was washed, row by row, by gently pipetting 100 μL of RT. PBS++ down the sides of the wells and turning the plate 90 degrees to aspirate. This procedure was repeated for a total of 3 washes. Each well was filled with 100 μL after washing by pipetting down the side of the well.
An IC50 value was calculated for each compound, both in the presence of the human serum and in the absence of human serum.

With `CCN(CC)c1ncc(N(C)S(=O)(=O)c2ccc(F)cc2)c(N[C@@H](Cc2ccc(OC(=O)N3CCC3)cc2)C(=O)O)n1` [Example 8, N-(2-[N′,N′-diethylamino]-5-[N″-(4-fluorophenylsulfonyl)-N″-methylamino]pyrimidin-4-yl)-4′-(azetidin-1-ylcarbonyloxy)-L-phenylalanine] as the compound, how does the AUC [1] read?
The AUC was 2.4082 (μg/mL)h.

And the IC50 (α4β1 integrin; containing human serum)?
The IC50 was 225 nM.

And the IC50 (α4β1 integrin; without the human serum)?
Its IC50 is 1.66 nM.

Which results are given for `CCN(CC)c1ncc(N(C)S(=O)(=O)c2ccc(Cl)cc2)c(N[C@@H](Cc2ccc(OC(=O)N3CCC3)cc2)C(=O)O)n1` [Example 9]?
AUC [1]: 2.0774 (μg/mL)h; IC50 (α4β1 integrin; containing human serum): 207 nM; IC50 (α4β1 integrin; without the human serum): 3.24 nM

With `CCN(CC)c1ncc(N(CC)S(=O)(=O)c2ccc(Cl)cc2)c(N[C@@H](Cc2ccc(OC(=O)N3CCC3)cc2)C(=O)O)n1` [Example 10, N-(2-[N′,N′-diethylamino]-5-[N″-(4-chlorophenylsulfonyl]-N″-ethylamino]pyrimidin-4-yl)-4′-(azetidin-1-ylcarbonyloxy)-L-phenylalanine] as the compound, how does the AUC [1] read?
Its AUC is 2.1113 (μg/mL)h.

And the IC50 (α4β1 integrin; containing human serum)?
Its IC50 is 82.9 nM.

What about the IC50 (α4β1 integrin; without the human serum) of the same compound?
Its IC50 is 4.06 nM.

With `CCN(CC)c1ncc(N(C)S(=O)(=O)c2ccc(F)cc2F)c(N[C@@H](Cc2ccc(OC(=O)N3CCCC3)cc2)C(=O)O)n1` [Example 11, N-(2-[N′,N′-diethylamino]-5-[N″-(2,4-difluorophenylsulfonyl)-N″-methylamino]pyrimidin-4-yl)-4′-(pyrrolidin-1-ylcarbonyloxy)-L-phenylalanine] as the compound, how does the AUC [1] read?
Its AUC is 14.818 (μg/mL)h.

And the IC50 (α4β1 integrin; containing human serum)?
Its IC50 is 483 nM.

And the IC50 (α4β1 integrin; without the human serum)?
Its IC50 is 8.37 nM.

For `CCN(CC)c1ncc(N(CC)S(=O)(=O)c2ccc(F)cc2F)c(N[C@@H](Cc2ccc(OC(=O)N3CCCC3)cc2)C(=O)O)n1` [Example 12, N-(2-[N′,N′-diethylamino]-5-[N″-(2,4-difluorophenylsulfonyl)-N″-ethylamino]pyrimidin-4-yl)-4′-(pyrrolidin-1-ylcarbonyloxy)-L-phenylalanine], which AUC [1] is on record?
Its AUC is 4.7816 (μg/mL)h.

What about the IC50 (α4β1 integrin; containing human serum) of the same compound?
Its IC50 is 227 nM.

And the IC50 (α4β1 integrin; without the human serum)?
The IC50 was 8.71 nM.

With `CCN(CC)c1ncc(N(C)S(=O)(=O)c2ccc(F)cc2F)c(N[C@@H](Cc2ccc(OC(=O)N3CCC3)cc2)C(=O)O)n1` [Example 13, N-(2-[N′,N′-diethylamino]-5-[N″-(2,4-difluorophenylsulfonyl)-N″-methylamino]pyrimidin-4-yl)-4′-(azetidin-1-ylcarbonyloxy)-L-phenylalanine] as the compound, how does the AUC [1] read?
Its AUC is 1.283 (μg/mL)h.

What about the IC50 (α4β1 integrin; containing human serum) of the same compound?
The IC50 was 89.5 nM.

What about the IC50 (α4β1 integrin; without the human serum) of the same compound?
The IC50 was 2.45 nM.

With `CCN(CC)c1ncc(N(CC)S(=O)(=O)c2ccc(F)cc2F)c(N[C@@H](Cc2ccc(OC(=O)N3CCC3)cc2)C(=O)O)n1` [Example 14, N-(2-[N′,N′-diethylamino]-5-[N″-(2,4-difluorophenylsulfonyl)-N″-ethylamino]pyrimidin-4-yl)-4′-(azetidin-1-ylcarbonyloxy)-L-phenylalanine] as the compound, how does the AUC [1] read?
The AUC was 0.3566 (μg/mL)h.

And the IC50 (α4β1 integrin; containing human serum)?
The IC50 was 51.5 nM.

What about the IC50 (α4β1 integrin; without the human serum) of the same compound?
The IC50 was 3.39 nM.

With `C#CCN(c1cnc(N(CC)CC)nc1N[C@@H](Cc1ccc(OC(=O)N2CCCC2)cc1)C(=O)O)S(=O)(=O)c1ccc(F)cc1F` [Example 16, N-(2-[N′,N′-diethylamino]-5-[N″-(2,4-difluorophenylsulfonyl)-N″-propargylamino]pyrimidin-4-yl)-4′-(pyrrolidin-1-ylcarbonyloxy)-L-phenylalanine] as the compound, how does the AUC [1] read?
The AUC was 23.808 (μg/mL)h.

What about the IC50 (α4β1 integrin; containing human serum) of the same compound?
The IC50 was 565 nM.

And the IC50 (α4β1 integrin; without the human serum)?
Its IC50 is 13.7 nM.

What does the source list for `C#CCN(c1cnc(N(CC)CC)nc1N[C@@H](Cc1ccc(OC(=O)N2CCC2)cc1)C(=O)O)S(=O)(=O)c1ccc(F)cc1F` [Example 17, N-(2-[N′,N′-diethylamino]-5-[N″-(2,4-difluorophenylsulfonyl)-N″-propargylamino]pyrimidin-4-yl)-4′-(azetidin-1-ylcarbonyloxy)-L-phenylalanine]?
AUC [1]: 0.8628 (μg/mL)h; IC50 (α4β1 integrin; containing human serum): 125 nM; IC50 (α4β1 integrin; without the human serum): 5.24 nM

For `C#CCN(c1cnc(N(CC)CC)nc1N[C@@H](Cc1ccc(OC(=O)N2CCC2)cc1)C(=O)O)S(=O)(=O)c1ccc(F)cc1` [Example 18, N-(2-[N′,N′-diethylamino]-5-[N″-(4-fluorophenylsulfonyl)-N″-propargylamino]pyrimidin-4-yl)-4′-(azetidin-1-ylcarbonyloxy)-L-phenylalanine], which AUC [1] is on record?
The AUC was 4.7528 (μg/mL)h.

And the IC50 (α4β1 integrin; containing human serum)?
The IC50 was 480 nM.

What about the IC50 (α4β1 integrin; without the human serum) of the same compound?
The IC50 was 5.86 nM.
